Reference: patent US20250151727A1, “(S)-ABSCISIC ACID FOR REDUCING FRUIT DROP” (Valent BioSciences LLC, priority 2023, published 2025)

Columns and labels:
Assay type in all cases: in vivo
[1] = system: 'Orri' mandarin trees; test: Fruit drop, 'Orri' mandarin, Mpumalanga (Example 6); details: 80 ppm @ 28 DAP, Excelero SL; vs untreated control
Excerpt: Excelero™ SL was applied to mature ‘Orri’ mandarin trees in a commercial orchard near Mpumalanga, South Africa. The experiment consisted of a completely randomized design. S-ABA was applied at 20, 40 and 80 ppm in the form of Excelero™ SL and compared to an untreated control. All treatments were applied with Villa 51® at a rate of 6 milliliters per 100 liters of water. Treatments were applied 14, 21 and 28 days after 100% petal drop (“DAP”). See Results in Table 6, below.

[2] = system: '2PH seedless' lemon trees; test: Fruit drop, '2PH seedless' lemon, Mpumalanga (Example 8); details: for # Fruit per Tree / % Change in # Fruit per Tree: Excelero SL; for % Change in # Fruit per Tree: vs untreated control
Excerpt: Excelero™ SL was applied to mature ‘2PH seedless’ lemon trees in a commercial orchard near Mpumalanga, South Africa. The experiment consisted of a completely randomized design. S-ABA was applied at 20, 40 and 80 ppm in the form of Excelero™ SL and compared to an untreated control. All treatments were applied with Villa 51® at a rate of 6 milliliters per 100 liters of water. Treatments were applied 14, 21 and 28 days after 100% petal drop (“DAP”). See Results in Table 8, below.

[3] = system: 'Midknight Valencia' sweet orange trees; test: Fruit drop after foliar spray, 'Midknight Valencia' sweet orange, Porterville (Example 1); details: for # Fruit per Tree / % Change in # Fruit per Tree: ProTone SG, 28 days after 100% petal drop; for % Change in # Fruit per Tree: vs untreated control
Protocol: ProTone™ SG was applied to mature ‘Midknight Valencia’ sweet orange trees in a commercial orchard near Porterville (33°08′37.54″S, 18°59′35.90″E) in the Western Cape Province of South Africa. The experiment consisted of a completely randomized design and consisted of 10 single-tree replicates. S-ABA was applied as a foliar spray at 75, 150 and 300 parts per million (“ppm”) and compared to an untreated control (only water) at 2 liters per tree. All treatments were applied with a non-ionic wetting agent (Villa 51® having the active ingredient isotridecanol and available from Villa Crop Protection (Pty) Ltd) at a rate of 6 milliliters per 100 liters of water. Treatments were applied 28 days after 100% petal drop on 31 Oct. 2019. See Results in Table 1, below.

[4] = system: 'Nadorcott' mandarin trees; test: Fruit drop, 'Nadorcott' mandarin, Piketberg, all plots with ProGibb (Example 4); details: for # Fruit per Tree / % Change in # Fruit per Tree: Excelero SL; for % Change in # Fruit per Tree: vs untreated control
Protocol: Excelero™ SL was applied to mature ‘Nadorcott’ mandarin trees in a commercial orchard near Piketberg (33°04′46.3″S 18°50′04.7″E) in the Western Cape Province of South Africa. The experiment consisted of 5 trees per plot. S-ABA was applied at 50 and 100 ppm in the form of Excelero™ SL and compared to an untreated control at 2.4 liters per tree. All plots received application of ProGibb® at 80% and 100% petal fall. All treatments were applied with Villa 51® at a rate of 6 milliliters per 100 liters of water. Treatments were applied 42 and 56 days after 100% petal drop (“DAP”) on 23 November and […], respectively. See Results in Table 4, below.

[5] = system: 'Orri' mandarin trees; test: Fruit drop after foliar spray, 'Orri' mandarin, Piketberg, open and shade-netted orchards (Example 2); details: 150 ppm; for # Fruit per Tree / % Change in # Fruit per Tree: ProTone SG, 28 days after 100% petal drop
Protocol: ProTone™ SG was applied to mature ‘Orri’ mandarin trees in a commercial orchard near Piketberg (33°04′46.3″S 18°50′04.7″E) in the Western Cape Province of South Africa. Two trials were conducted, one in an orchard covered with permanent shade netting, and the other in an open orchard. The experiment consisted of 5 trees per plot for each of covered and open orchard. S-ABA was applied as a foliar spray at 150 ppm and compared to an untreated control at 3.4 liters per tree for the covered orchard and 2.8 liters per tree for the open orchard. All treatments were applied with Villa 51® at a rate of 6 milliliters per 100 liters of water. Treatments were applied 28 days after 100% petal drop on 29 Nov. 2021. See Results in Table 2, below.

[6] = system: 'Leanri' mandarin trees; test: Fruit drop, 'Leanri' mandarin, Ashton, all plots with Falgro and girdling (Example 5); details: for # Fruit per Tree / % Change in # Fruit per Tree: 37 ppm, 21 days after 100% petal drop; for % Change in # Fruit per Tree: vs untreated control
Protocol: Excelero™ SL was applied to mature ‘Leanri’ mandarin trees in a commercial orchard near Ashton (33°50′57″S, 20°02′15″E) in the Western Cape Province of South Africa. The experiment consisted of 5 trees per plot. S-ABA was applied at 37 ppm in the form of ProTone™ SG and Excelero™ SL and compared to an untreated control at 2.4 liters per tree. All plots received application of Falgro® at 70% and 90% petal fall and a girdling action. All treatments were applied with Villa 51® at a rate of 6 milliliters per 100 liters of water. Treatments were applied 21 days after 100% petal drop on 8 Nov. 2023. See Results in Table 5, below.

Substance: (S)-abscisic acid [S-ABA]
- % Change in # Fruit per Tree [1]: 10%
- effect on fruit drop as compared to untreated control ([2]; 20, 40 and 80 ppm at each of 14, 21 and 28 days after 100% petal drop): reduced fruit drop
- # Fruit per Tree ([2]; 20 ppm @ 14 DAP): 107
- % Change in # Fruit per Tree ([2]; 20 ppm @ 14 DAP): 23%
- # Fruit per Tree ([2]; 20 ppm @ 21 DAP): 105
- % Change in # Fruit per Tree ([2]; 20 ppm @ 21 DAP): 21%
- # Fruit per Tree ([2]; 20 ppm @ 28 DAP): 112
- % Change in # Fruit per Tree ([2]; 20 ppm @ 28 DAP): 29%
- # Fruit per Tree ([2]; 40 ppm @ 14 DAP): 114
- % Change in # Fruit per Tree ([2]; 40 ppm @ 14 DAP): 31%
- # Fruit per Tree ([2]; 40 ppm @ 21 DAP): 121
- % Change in # Fruit per Tree ([2]; 40 ppm @ 21 DAP): 39%
- # Fruit per Tree ([2]; 40 ppm @ 28 DAP): 119
- % Change in # Fruit per Tree ([2]; 40 ppm @ 28 DAP): 37%
- # Fruit per Tree ([2]; 80 ppm @ 14 DAP): 109
- % Change in # Fruit per Tree ([2]; 80 ppm @ 14 DAP): 25%
- # Fruit per Tree ([2]; 80 ppm @ 21 DAP): 117
- % Change in # Fruit per Tree ([2]; 80 ppm @ 21 DAP): 34%
- # Fruit per Tree ([2]; 80 ppm @ 28 DAP): 125
- % Change in # Fruit per Tree ([2]; 80 ppm @ 28 DAP): 44%
- effect on fruit drop as compared to untreated control ([3]; 75 and 150 ppm): reduced fruit drop
- # Fruit per Tree ([3]; 75 ppm foliar spray): 413
- % Change in # Fruit per Tree ([3]; 75 ppm foliar spray): 11%
- # Fruit per Tree ([3]; 150 ppm foliar spray): 444
- % Change in # Fruit per Tree ([3]; 150 ppm foliar spray): 20%
- effect on fruit drop as compared to untreated control ([3]; 300 ppm): increasing fruit drop
- # Fruit per Tree ([3]; 300 ppm foliar spray): 351
- % Change in # Fruit per Tree ([3]; 300 ppm foliar spray): −5%
- effect on fruit drop as compared to untreated control ([4]; 50 and 100 ppm at both 42 and 56 days after 100% petal drop): reduced fruit drop
- # Fruit per Tree ([4]; 50 ppm @ 42 DAP): 412
- % Change in # Fruit per Tree ([4]; 50 ppm @ 42 DAP): 35%
- # Fruit per Tree ([4]; 50 ppm @ 56 DAP): 316
- % Change in # Fruit per Tree ([4]; 50 ppm @ 56 DAP): 3%
- # Fruit per Tree ([4]; 100 ppm @ 42 DAP): 387
- % Change in # Fruit per Tree ([4]; 100 ppm @ 42 DAP): 26%
- # Fruit per Tree ([4]; 100 ppm @ 56 DAP): 322
- % Change in # Fruit per Tree ([4]; 100 ppm @ 56 DAP): 5%
- effect on fruit drop as compared to untreated control [5]: increased fruit drop
- # Fruit per Tree ([5]; no shade (open orchard)): 397
- % Change in # Fruit per Tree ([5]; no shade (open orchard), vs untreated control (no shade)): −28%
- # Fruit per Tree ([5]; shade (permanent shade netting)): 82
- % Change in # Fruit per Tree ([5]; shade (permanent shade netting), vs untreated control (shade)): −78%
- effect on fruit drop as compared to untreated control ([6]; 37 ppm at 21 days after 100% petal drop): reduced fruit drop
- # Fruit per Tree ([6]; Excelero SL): 430
- % Change in # Fruit per Tree ([6]; Excelero SL): 28%
- # Fruit per Tree ([6]; ProTone SG): 398
- % Change in # Fruit per Tree ([6]; ProTone SG): 19%
